Reference: the supplement of paper PMC13380429

Columns and labels:
Conditions in all cases: 72 h
Calu-3 [1] = test: cell viability relative to DMSO; higher = less toxic
U2OS [2] = test: as above
HepG2 [3] = test: as above
Caco-2 [4] = test: as above
Vero E6 [5] = test: as above
Calu-3 [6] = test: relative viability EC50 (midpoint between 100% and the lowest measured viability); higher = less toxic
U2OS [7] = test: as above
Caco-2 [8] = test: as above
Vero E6 [9] = test: as above
Calu-3 [10] = test: drug sensitivity score (DSS) for viability; higher = more toxic; extreme values may be limits of the assay
U2OS [11] = test: as above
HepG2 [12] = test: as above
Caco-2 [13] = test: as above
Vero E6 [14] = test: as above

| Structure (SMILES) | cell viability (Calu-3 [1]; 1 nM) | cell viability (Calu-3 [1]; 10 nM) | cell viability (Calu-3 [1]; 100 nM) | cell viability (Calu-3 [1]; 1000 nM) | cell viability (Calu-3 [1]; 10000 nM) | cell viability (U2OS [2]; 1 nM) | cell viability (U2OS [2]; 10 nM) | cell viability (U2OS [2]; 100 nM) | cell viability (U2OS [2]; 1000 nM) | cell viability (U2OS [2]; 10000 nM) | cell viability (HepG2 [3]; 1 nM) | cell viability (HepG2 [3]; 10 nM) | cell viability (HepG2 [3]; 100 nM) | cell viability (HepG2 [3]; 1000 nM) | cell viability (HepG2 [3]; 10000 nM) | cell viability (Caco-2 [4]; 1 nM) | cell viability (Caco-2 [4]; 10 nM) | cell viability (Caco-2 [4]; 100 nM) | cell viability (Caco-2 [4]; 1000 nM) | cell viability (Caco-2 [4]; 10000 nM) | cell viability (Vero E6 [5]; 1 nM) | cell viability (Vero E6 [5]; 10 nM) | cell viability (Vero E6 [5]; 100 nM) | cell viability (Vero E6 [5]; 1000 nM) | cell viability (Vero E6 [5]; 10000 nM) | relative viability EC50 (Calu-3 [6]) | relative viability EC50 (U2OS [7]) | relative viability EC50 (Caco-2 [8]) | relative viability EC50 (Vero E6 [9]) | drug sensitivity score (Calu-3 [10]) | drug sensitivity score (U2OS [11]) | drug sensitivity score (HepG2 [12]) | drug sensitivity score (Caco-2 [13]) | drug sensitivity score (Vero E6 [14]) |
| --- | --- | --- | --- | --- | --- | --- | --- | --- | --- | --- | --- | --- | --- | --- | --- | --- | --- | --- | --- | --- | --- | --- | --- | --- | --- | --- | --- | --- | --- | --- | --- | --- | --- | --- |
| CC(C)C[C@@H](C(=O)N[C@@H](Cc1ccc(OCc2ccccc2)cc1)C(=O)NC(C)(C)C)N(C)Cc1ccc(C(C)(C)C)cc1 | 93.4% | 105% | 97.5% | 111% | 87.8% | 97.4% | 101% | 97.5% | 101% | 85.5% | 107% | 101% | 93.5% | 99.1% | 68% | 88.8% | 95.9% | 94.1% | 100% | 87.5% | 103% | 103% | 106% | 97.8% | 95.7% | > 10 µM | > 10 µM | > 10 µM | > 10 µM | 0 | 0.1 | 1.6 | 0 | 0 |
| C[C@]12C=CC(=O)N[C@@H]1CC[C@@H]1[C@@H]2CC[C@]2(C)[C@@H](C(=O)Nc3cc(C(F)(F)F)ccc3C(F)(F)F)CC[C@@H]12 [dutasteride] | 111% | 99% | 98.2% | 105% | 106% | – | – | – | – | – | – | – | – | – | – | 111% | 93% | 105% | 97.4% | 104% | – | – | – | – | – | > 10 µM | – | > 10 µM | – | 0 | – | – | 0 | – |
| Nc1nc(NCCNc2ncc(-n3ccnc3)c(-c3ccc(Cl)cc3Cl)n2)ccc1[N+](=O)[O-] | 96.3% | 98.1% | 104% | 111% | 112% | 96.9% | 101% | 96.7% | 103% | 110% | – | – | – | – | – | 96.7% | 99.9% | 100% | 111% | 111% | 96.1% | 98% | 94.2% | 97.1% | 106% | > 10 µM | > 10 µM | > 10 µM | > 10 µM | 0 | 0 | – | 0 | 0 |
| O=C1OC2(c3ccccc31)c1cc(I)c(O)c(I)c1Oc1c2cc(I)c(O)c1I [erythrosine] | 102% | 104% | 113% | 86.6% | 53.6% | 94.6% | 91.7% | 97% | 88.7% | 57.3% | 104% | 109% | 97.6% | 103% | 53.4% | 99.2% | 98.7% | 102% | 93.8% | 51.9% | 87.3% | 96.4% | 98.7% | 81.6% | 64.5% | – | – | – | – | 4.4 | 3.9 | 2.2 | 3.6 | 3.7 |
| N=C(N)NN=C1C=CC(=NNC(N)=S)C=C1 [ambazone] | 105% | 95.8% | 94.1% | 98.2% | 118% | 95% | 94.8% | 97.9% | 99.3% | 95% | 97.1% | 95.3% | 102% | 83.4% | 63.2% | 88.4% | 94.9% | 94.6% | 91.2% | 92.7% | 90.9% | 95.1% | 102% | 100% | 103% | > 10 µM | > 10 µM | > 10 µM | > 10 µM | 0 | 0 | 3.9 | 0 | 0 |
| CN(C)CCc1c[nH]c2ccc(CS(=O)(=O)N3CCCC3)cc12 [almotriptan] | 98.8% | 103% | 108% | 97.8% | 106% | 101% | 104% | 101% | 98.6% | 100% | – | – | – | – | – | 92.9% | 97.9% | 99.9% | 109% | 106% | – | – | – | – | – | > 10 µM | > 10 µM | > 10 µM | – | 0 | 0 | – | 0 | – |
| COc1ccccc1S(=O)(=O)Nc1ccc2c(c1)CN(C)C(=O)N2 [PFI-1] | 102% | 92.6% | 102% | 88% | 58.2% | – | – | – | – | – | 108% | 103% | 94.3% | 94.4% | 50.1% | 102% | 102% | 107% | 94% | 75.7% | 102% | 102% | 96.2% | 81.5% | 16.3% | – | – | > 10 µM | 1.65 µM | 3.9 | – | 3.6 | 1.7 | 7.6 |
| NCC(=O)Nc1ccc(-n2nc(C(F)(F)F)cc2-c2ccc3c(ccc4ccccc43)c2)cc1 [AR-12] | 103% | 98.2% | 98.9% | 102% | 45.4% | 89.7% | 98.9% | 95% | 100% | 89% | 110% | 96.1% | 103% | 105% | 71.5% | 96.8% | 91% | 87.9% | 96.8% | 92.1% | 97.4% | 94.3% | 95.7% | 80.4% | 68.2% | 3.39 µM | > 10 µM | > 10 µM | – | 2.7 | 0 | 0.9 | 0 | 3.5 |
| CC(C)(C(=O)O)c1ccc(C(O)CCCN2CCC(C(O)(c3ccccc3)c3ccccc3)CC2)cc1 (stereo not given) [fexofenadine] | – | – | – | – | – | – | – | – | – | – | – | – | – | – | – | – | – | – | – | – | – | – | – | – | – | – | – | – | – | 0 | 0 | – | – | 0 |
| CN(C)CCN(Cc1cccs1)c1ccccn1 [methapyrilene] | 101% | 101% | 92.6% | 89.3% | 89.7% | 102% | 102% | 97.9% | 102% | 96.7% | – | – | – | – | – | 103% | 95.2% | 94.2% | 104% | 107% | 98.1% | 99.9% | 101% | 96.4% | 96.3% | > 10 µM | > 10 µM | > 10 µM | > 10 µM | 0.3 | 0 | – | 0 | 0 |
| C1=C2CCCN[C@H]2[C@@H]2C[C@H]1[C@H]1CCCCN1C2 [aloperine] | 91.1% | 99.2% | 90.7% | 85% | 83.1% | 96.8% | 102% | 92.8% | 100% | 94.1% | – | – | – | – | – | 96.4% | 108% | 104% | 106% | 94.4% | 102% | 100% | 104% | 99.4% | 98.1% | > 10 µM | > 10 µM | > 10 µM | > 10 µM | 1.4 | 0 | – | 0 | 0 |
| Cn1c(=O)c2c(ncn2CCOC(=O)C(C)(C)Oc2ccc(Cl)cc2)n(C)c1=O [etofylline-clofibrate] | 96.1% | 98.9% | 93.2% | 94.3% | 89.5% | 98% | 91.9% | 101% | 95.9% | 97.3% | – | – | – | – | – | 98% | 100% | 89.4% | 91.4% | 93.9% | 92.8% | 109% | 91.6% | 96.1% | 104% | > 10 µM | > 10 µM | > 10 µM | > 10 µM | 0 | 0 | – | 0.3 | 0 |
| C=CC(=O)O [acrylate] | – | – | – | – | – | – | – | – | – | – | – | – | – | – | – | – | – | – | – | – | – | – | – | – | – | – | – | – | – | 0 | 0 | 0 | – | 0 |
| CN(C[C@@H]1COCCO1)S(=O)(=O)Nc1ccc2ccc3ncc(-c4cnn(C)c4)cc3c(=O)c2c1 [MK-2461] | 81.9% | 89% | 84% | 90.7% | 93.9% | 89.1% | 98.8% | 99.2% | 96.9% | 64.1% | 96.6% | 96.6% | 96.5% | 91.4% | 58.6% | 103% | 97.9% | 94.5% | 99.7% | 64.5% | 103% | 97.7% | 97.3% | 93.2% | 59.7% | > 10 µM | – | – | – | 0 | 2.2 | 3.5 | 1.7 | 3.1 |
| Nc1ncn([C@H]2C[C@H](O)[C@@H](CO)O2)c(=O)n1 [decitabine] | 109% | 105% | 101% | 107% | 93.5% | 102% | 102% | 99.9% | 100% | 101% | 95.8% | 98.6% | 82.6% | 71.9% | 69.8% | 97.2% | 88.3% | 82.2% | 89.4% | 88.4% | 103% | 102% | 95.1% | 93% | 93.2% | > 10 µM | > 10 µM | > 10 µM | > 10 µM | 0 | 0 | 6.6 | 1.7 | 0 |
| Cc1cc(C)nc(SCC(=O)Nc2ncc(Cc3cccc4ccccc34)s2)n1 [SirReal-2] | 97% | 95.7% | 95.1% | 91% | 102% | 94.7% | 103% | 96.6% | 101% | 92.8% | – | – | – | – | – | 104% | 101% | 93.4% | 99.6% | 96.6% | – | – | – | – | – | > 10 µM | > 10 µM | > 10 µM | – | 0 | 0 | – | 0 | – |
| COCc1nnc(N2CC(Oc3ccc(F)cc3Cl)C2)n1-c1ccc(OC)nc1 | 92.8% | 103% | 101% | 104% | 113% | 93.3% | 93.6% | 95.6% | 103% | 97.4% | – | – | – | – | – | 88.5% | 105% | 102% | 105% | 97.5% | 97.8% | 93.1% | 101% | 90.9% | 106% | > 10 µM | > 10 µM | > 10 µM | > 10 µM | 0 | 0 | – | 0 | 0 |
